This passage reports IC50 results from patent publication US11787766B2, “Compound having PD-L1 inhibitory activity, preparation method therefor and use thereof” (SHANGHAI ENNOVABIO PHARMACEUTICALS CO., LTD., priority 2017, dated 2023).

For orientation: IC50 means the concentration that inhibits the measured activity by half.

For the test, the target named is PD-L1 (Homo sapiens (Human), UniProt Q9NZQ7). The experiment in a line: PD-1/PD-L1 homogeneous time-resolved fluorescence (HTRF) binding assay. Conditions: Cisbio PD1/PD-L1 binding assay kit. From the text: PD-1/PD-L1 homogeneous time-resolved fluorescence (HTRF) detection technology was used to detect the binding ability of the compound to PD-L1.
Sequence of PD-L1 (Q9NZQ7 19-238): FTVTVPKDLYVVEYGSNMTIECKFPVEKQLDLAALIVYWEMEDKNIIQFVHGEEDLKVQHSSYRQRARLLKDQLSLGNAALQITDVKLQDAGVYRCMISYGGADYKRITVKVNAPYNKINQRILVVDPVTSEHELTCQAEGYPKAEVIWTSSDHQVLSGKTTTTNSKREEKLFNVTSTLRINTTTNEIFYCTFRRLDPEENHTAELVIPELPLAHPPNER
PD1/PD-L1 binding assay kit (Cisbio, Cat #63ADK000CPDEC) was used, which includes two proteins, Tag 1-PD-L1 and Tag 2-PD-1, and two antibodies, Anti-Tag1-Eu^3+ and Anti-Tag2-XL 665. Assay principle: Anti-tag1-Eu^3+ is the HTRF donor, and Anti-Tag2-XL 665 is the HTRF acceptor. When Tag 1-PD-L1 and Tag 2-PD-1 interact, the added HTRF donor and the acceptor are close to each other. After the donor receives the excitation energy, it transfers part of the energy to the acceptor, thus producing 665 nm emission signal. When the compound is added to block the PD1/PD-L1 interaction, only 620 nm emission light was detected. The inhibitory effect of the compound was determined by analyzing the ratio of 665 nm/620 nm. Tag 1-PD-L1 was diluted with Diluent buffer (cat #62DLBDDF) to a working concentration of 10 nM, Tag 2-PD-1 was diluted with Diluent buffer to a working concentration of 500 nM, and Anti-Tag1-Eu^3+ was diluted with detection buffer (cat #62DB1FDG) by 1:100, Anti-Tag2-XL 665 was diluted with detection buffer by 1:20, and the test compound was diluted with Diluent buffer to a final concentration of 2×. In a 384-well plate, 2 μL of compound was added to each well, and then 4 μL of Tag 1-PD-L1, 4 μL of Tag 2-PD-1 were added and incubated at room temperature for 15 minutes. 5 μL Anti-Tag1-Eu^3+ and 5 μL Anti-Tag2-XL 665 were added and incubated overnight at room temperature, and detected with BioTek Synergy™ Neo2 Multifunctional Microplate Reader to obtain the ratio of 665 nm/620 nm. The IC50 curve was fitted by GraphPad Prism 5.02.
(In TR-FRET formats the signal depends on donor and acceptor labels being close together.)
Regarding `COc1nc(OCc2cccc(-c3cccc(COc4ccc(CN5C[C@@H](O)C[C@H]5C(=O)O)c(OC)n4)c3C)c2C)ccc1CN1CC[C@H](O)C1` [Compound 47], the IC50 is less than 10 nM.
The result for `COc1nc(OCc2cccc(-c3cccc(COc4ccc(CNCC(C)(C)O)c(OC)n4)c3C)c2C)ccc1CNCC(C)(C)O` [Compound 20] reads 10 to 100 nM.
The result for `COc1nc(OCc2cccc(-c3cccc(COc4ccc(CN5CCCC[C@@H]5C(=O)O)c(OC)n4)c3C)c2C)ccc1CN1CCCC[C@@H]1C(=O)O` [Compound 27] reads less than 10 nM; that for `COc1nc(OCc2cccc(-c3cccc(COc4ccc(CN5CCC5C(=O)O)c(OC)n4)c3C)c2C)ccc1CN1CCC1C(=O)O` (stereo not shown) [Compound 35], less than 10 nM; that for `COc1nc(OCc2cccc(-c3cccc(COc4ccc(CN5C[C@@H](O)C[C@H]5C(=O)O)c(OC)n4)c3Cl)c2Cl)ccc1CO` [Compound 57], 10 to 100 nM.
The result for `Cc1c(CO)cccc1-c1cccc(COc2cccc(CN)n2)c1C` [Compound 7, (3′-(((6-(aminomethyl)pyridin-2-yl)oxo)methyl)-2,2′-dimethyl-[1,1′-biphenyl]-3-yl)methanol] reads more than 1000 nM.
As for `COc1nc(OCc2cccc(-c3cccc(COc4ccc(CN5CC(CC(N)=O)C5)c(OC)n4)c3Cl)c2Cl)ccc1CN1CC(CC(N)=O)C1` [Compound 76], the IC50 was less than 10 nM.
The result for `COc1nc(OCc2cccc(-c3cccc(COc4ccc(CNC5CCCCC5O)c(OC)n4)c3C)c2C)ccc1CNC1CCCCC1O` (stereo not shown) [Compound 24] reads 10 to 100 nM; that for `COc1nc(OCc2cccc(-c3cccc(COc4ccc(CN[C@H](C(=O)O)[C@@H](C)O)c(OC)n4)c3C)c2C)ccc1CN[C@H](C(=O)O)[C@@H](C)O` [Compound 51], less than 10 nM.
The same measure for `COc1nc(OCc2cccc(-c3cccc(COc4ccc(CN[C@@H](CC(N)=O)C(=O)O)c(OC)n4)c3C)c2C)ccc1CN[C@@H](CC(N)=O)C(=O)O` [Compound 49]: less than 10 nM.
The result for `COc1nc(OCc2cccc(COc3ccc(CNCCNC(C)=O)c(OC)n3)n2)ccc1CNCCNC(C)=O` [Compound 18, N,N-((((((pyridine-2,6-diyl-bis (methylene))bis (oxo))bis (2-methoxypyridine-6,3-diyl))bis (methylene))bis (azetanediyl))bis (ethane-2,1-diyl)) diacetamide] reads more than 1000 nM.
With `COc1nc(OCc2cccc(-c3cccc(COc4ccc(CN5C[C@@H](F)C[C@H]5C(=O)O)c(OC)n4)c3Cl)c2Cl)ccc1CN1C[C@@H](F)C[C@H]1C(=O)O` [Compound 79], the IC50 was less than 10 nM.
The result for `COc1nc(OCc2cccc(-n3nnc(COc4ccc(CNCCNC(C)=O)c(OC)n4)c3C)c2C)ccc1CNCCNC(C)=O` [Compound 31] reads more than 1000 nM.
The result for `CNC(=O)CNCc1ccc(OCc2cccc(-c3cccc(COc4ccc(CNCC(=O)NC)c(OC)n4)c3Cl)c2Cl)nc1OC` [Compound 77] reads less than 10 nM.
For `CNS(=O)(=O)CCNCc1ccc(OCc2cccc(-c3cccc(COc4ccc(CNCCS(=O)(=O)NC)c(OC)n4)c3Cl)c2Cl)nc1OC` [Compound 80], the 50% inhibitory concentration (IC50) lay in the range of 10 to 100 nM.
The same measure for `CC(=O)NCCNCc1cc2nc(OCc3cccc(-c4cccc(COc5ccc6[nH]c(CNCCNC(C)=O)cc6n5)c4C)c3C)ccc2[nH]1` [Compound 34]: 10 to 100 nM.
The same measure for `COc1nc(OCc2cccc(-c3cccc(COc4ccc(CN5CCCCC5C(=O)O)c(OC)n4)c3Cl)c2Cl)ccc1CN1CCCCC1C(=O)O` (stereo not shown) [Compound 70]: less than 10 nM; for `COc1nc(OCc2cccc(-c3cccc(COc4ccc(CN5C[C@@H](O)C[C@H]5C(=O)O)c(OC)n4)c3Cl)c2Cl)ccc1CN1C[C@@H](O)C[C@H]1C(=O)O` [Compound 46]: less than 10 nM; for `COc1nc(OCc2cccc(-c3cccc(COc4ccc(CN5C[C@@H](F)C[C@H]5C(=O)O)c(OC)n4)c3Cl)c2Cl)ccc1CN1CCC(C(F)F)C1` (stereo partly shown) [Compound 81]: less than 10 nM.
As to `COc1nc(OCc2cccc(-c3cccc(COc4ccc(CNC5CNC(=O)C5)c(OC)n4)c3C)c2C)ccc1CNC1CNC(=O)C1` (stereo not shown) [Compound 55], the IC50 was 10 to 100 nM.
The result for `COc1nc(OCc2cccc(-c3cccc(CO)c3C)c2C)ccc1N` [Compound 8] reads more than 1000 nM.
The same measure for `COc1nc(OCc2cccc(-c3cccc(COc4ccc(CN5CC[C@H](O)C5)c(OC)n4)c3Cl)c2Cl)ccc1CN1CC[C@H](O)C1` [Compound 62]: less than 10 nM.
`COc1nc(OCc2cccc(-c3cccc(COc4ccc(CNCCC(N)=O)c(OC)n4)c3C)c2C)ccc1CNCCC(N)=O` [Compound 22]: the half-inhibitory concentration (IC50) fell in the range of 10 to 100 nM.
As for `COc1nc(OCc2cccc(COc3ccc(CNCCNC(C)=O)c(OC)n3)c2C)ccc1CNCCNC(C)=O` [Compound 19], the half-maximal inhibitory concentration (IC50) was 100 to 1000 nM.
The result for `COc1nc(OCc2cccc(-c3cccc(COc4ccc(CNC(C)(CO)CO)c(OC)n4)c3C)c2C)ccc1CNC(C)(CO)CO` [Compound 50] reads less than 10 nM; that for `COc1nc(OCc2cccc(-n3nc(C)c(COc4ccc(CNCCNC(C)=O)c(OC)n4)c3C)c2C)ccc1CNCCNC(C)=O` [Compound 29], more than 1000 nM; that for `COc1nc(OCc2cccc(-c3cccc(COc4ccc(CNC(CCO)C(=O)O)c(OC)n4)c3C)c2C)ccc1CNC(CCO)C(=O)O` (stereo not shown) [Compound 67], less than 10 nM.
The result for `Cc1c(COc2ccc3[nH]c(CO)cc3n2)cccc1-c1cccc(COc2ccc3[nH]c(CO)cc3n2)c1C` [Compound 32] reads more than 1000 nM.
The same measure for `CC(=O)NCCNCc1cc(Cl)c2nc(-c3cccc(-c4cccc(-c5nc6c(Cl)cc(CNCCNC(C)=O)cn6n5)c4C)c3C)nn2c1` [Compound 45]: less than 10 nM.
For the molecule `COc1nc(OCc2cccc(-c3csc(COc4ccc(CNCCNC(C)=O)c(OC)n4)c3C)c2C)ccc1CNCCNC(C)=O` [Compound 36], the 50% inhibitory concentration (IC50) was less than 10 nM.
The same measure for `COc1nc(OCc2cccc(-c3cccc(COc4ccc(CNCCNC(C)=O)c(OC)n4)c3Cl)c2Cl)ccc1CNCCNC(C)=O` [Compound 43]: less than 10 nM; for `COc1nc(OCc2cccc(-c3cccc(COc4ccc(CN5C[C@H](O)[C@@H](O)C5)c(OC)n4)c3Cl)c2Cl)ccc1CN1C[C@H](O)[C@@H](O)C1` [Compound 71]: less than 10 nM; for `COc1nc(OCc2cccc(-n3c(C)nc(COc4ccc(CNCCNC(C)=O)c(OC)n4)c3C)c2C)ccc1CNCCNC(C)=O` [Compound 44]: more than 1000 nM.
Consider `COc1nc(OCc2cccc(-c3cccc(COc4ccc(CN5CCC(CC#N)CC5)c(OC)n4)c3C)c2C)ccc1CN1CCC(CC#N)CC1` [Compound 59], for which the 50% inhibitory concentration (IC50) is 10 to 100 nM.
